Laboratory results taken from US9970037B2, “Methods and materials for making simvastatin and related compounds” (The Regents of the University of California, priority 2006, dated 2018).

Tests used:
E. coli BL21(DE3)/pAW31 = assay: Whole cell biocatalysis with E. coli overexpressing LovD; type: cell-based, Escherichia coli; details: 0.5 mM lovastatin (sodium salt form)
Protocol: The BL21(DE3)/pAW31 overexpression strain was grown in a shake flask (200 mL) to an OD600 of 1.0, at which time 1 mM IPTG, 0.8 mM monacolin J and 4 mM of either benzoyl-SNAC or benzoyl-SMTG were added to the culture. Expression of LovD and bioconversion was performed at 18° C. The culture was extracted and analyzed for the formation of 8-benzoyl-monacolin J. When supplemented with benzoyl-SNAC, 84% conversion of monacolin J was detected within 20 hours post-induction. The product was lactonized and purified by a single silica-gel chromatography step. The NMR spectra confirmed the regioselective benzoylation of the C8 hydroxyl group as the diagnostic H8 multiplet is shifted downfield to δ 5.61.
Fermentation conditions: 500 mL culture with LB media with 30 mg/L kanamycin. At OD600 of 1.0, cells were concentrated to a final OD600 of 5.0 and induced with 1 mM IPTG. Substrates monacolin J and α-dimethylbutyryl-SNAC were added to a final concentration of 1 mM and 4 mM. At different time points, culture samples were collected, centrifuged, filtered and injected on to HPLC (20 μL). Extraction conditions: When maximum conversion was reached, the broth was acidified to pH of 2.0, extracted with ethyl acetate, dried and redissolved in toluene.
Whole-cell catalytic synthesis of simvastatin acid from MJ acid and DMB-S-MMP were performed as described (see, e.g., Xie et al., (2007) Appl Environ Microbiol 73: 2054-2060). The E. coli BL21(DE3)/pAW31 and YT2/pAW31 strains were cultured side-by-side for comparison. A single colony of the freshly transformed strains was used to inoculate a 5 mL LB culture supplemented with 35 mg/L kanamycin and grown overnight at 37° C. The next morning, 100 μL of the overnight culture was inoculated into 50 mL cultures containing LB broth, F1 minimal medium and F1 medium supplemented with 0.15 mg/L biotin. Growth rates were monitored by periodically measuring the OD600 reading. When OD600 reached ˜0.5, 100 μM IPTG was added to the culture and expression of LovD was performed at 20° C. for 16 hours. To mimic high density fermentation conditions, the cells were concentrated 10-fold before addition of substrates. Typically, a 14 mL aliquot of the culture was transferred to a 15 mL centrifuge tube and the cells were collected by centrifugation (4° C., 4000 g, 10 minutes). The cell pellet was gently resuspended in 1316 μl of the supernatant, followed by addition of 84 μl of a MJ acid stock solution (250 mM in H2O) (final concentration 15 mM). The concentrated culture was then separated into seven 200 μL samples and 1.2 μL of pure DMB-S-MMP was added to each sample (final concentration ˜25 mM). The culture was then shaken at 300 rpm at room temperature. At each time point, a total extraction was performed by adding 10 μL 20% SDS to lyse the cells, followed by liquid-liquid extraction with 500 μL EA/1% AcOH. The organic phase was removed, evaporated, and redissolved in 50 μL ACN for HPLC analysis. For the BL21(DE3) sample, an additional 1.2 μL aliquot of DMB-S-MMP was added after 12 hours to replenish the hydrolyzed substrates.
The E. coli BL21(DE3)/pAW31 strain was grown in LB medium at 37° C. to an OD600 of 0.5, at which time 100 μM IPTG was added to the culture and expression was performed at RT for 16 hours. A 10 ml culture was transferred to a 15 mL centrifuge tube. The cells were collected by centrifugation (4000 g, 10 minutes). The cell pellet was resuspended in 957 μl of the supernatant. The pH was adjusted to pH 7.9 with 1.0 N NaOH, followed by addition of 33 μl 450 mM MJ (final concentration 15 mM) and 6 μl pure DMB-S-MMP (final concentration ˜25 mM). The culture was then shaken at 300 rpm at room temperature. At each time point, a 4 μL aliquot was removed from the reaction mixture, quenched in 300 μL ethyl acetate containing 1% TFA.

LovD = biological target: T1, LovD (Aspergillus terreus, UniProt Q9Y7D1); design: 6xHis (N); made in house; host or cells: E. coli BL21(DE3)/pAW31 (pET28a); details: Xie et al., 2006; cited from earlier work
T1 sequence (Q9Y7D1 1-413): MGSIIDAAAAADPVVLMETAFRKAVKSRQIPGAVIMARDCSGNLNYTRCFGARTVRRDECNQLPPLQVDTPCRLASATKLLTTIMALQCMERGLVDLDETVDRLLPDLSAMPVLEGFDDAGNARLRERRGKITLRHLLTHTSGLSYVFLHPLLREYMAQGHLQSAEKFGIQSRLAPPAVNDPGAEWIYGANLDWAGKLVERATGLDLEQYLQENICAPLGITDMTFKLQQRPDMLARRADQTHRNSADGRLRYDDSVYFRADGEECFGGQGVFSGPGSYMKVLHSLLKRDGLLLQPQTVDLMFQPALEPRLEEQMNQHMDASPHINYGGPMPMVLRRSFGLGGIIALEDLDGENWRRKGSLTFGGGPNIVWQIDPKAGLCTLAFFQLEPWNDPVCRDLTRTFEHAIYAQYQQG

In the case of `CC[C@H](C)C(=O)O[C@H]1C[C@@H](C)C=C2C=C[C@H](C)[C@H](CC[C@@H]3C[C@@H](O)CC(=O)O3)[C@H]21` [lovastatin, reference compound], the “conversion rate of whole cell hydrolysis” value (E. coli BL21(DE3)/pAW31) is listed as ~0.01 mM per hour, the “hydrolysis to monacolin J by whole cells” value (E. coli BL21(DE3)/pAW31; 48 hours) is listed as 91% and the “kcat of LovD hydrolysis of lovastatin into monacolin J in vitro (previously reported)” value (LovD) is listed as 0.0035 s⁻¹.
